We go through four molecules from patent US7417169B2, “Amino alcohol derivatives, medicinal composition containing the same, and use of these” (Kissei Pharmaceutical Co., Ltd., priority 2003, dated 2008).

Common to all, as to assay type: cell-based
One test concerns the target T1, human β1-adrenoceptor (Homo sapiens, UniProt P08588).
T1 construct: Both ends of a domain including full length of human β1-adrenoceptor were amplified; expressed in transfected cells; host or cells: CHO cells (transient transfection of pCI-neo plasmid, Lipofectamine 2000)
The test can be described thus: Measurement of agonistic activities on human β1-adrenoceptor (cAMP accumulation in transfected CHO cells). Conditions: CHO cells expressing human β1-adrenoceptor; for EC50: cAMP, concentration giving 50% of the maximum reaction of isoproterenol, read-out: β1 receptor EC50; for Emax: maximum reaction relative to isoproterenol (100%), read-out: β1 receptor I.A. (intrinsic activity). The source says: (§1) Measurement of Agonistic Activities on Human β1- and β2-Adrenoceptors
Both ends of a domain including full length of human β1-adrenoceptor were amplified on the basis of DNA base information that is registered with GenBank/EMBL data base as Accession No. J03019. DNA fragment which was amplified was inserted into a vector for cloning and amplified in Escherichia coli bacteria. The plasmid which was cloned was inserted into a vector pCI-neo (Promega) for protein expression and plasmid DNA was extracted and purified, then it was used for a preparation of the following expression cells.
1) Preparation of Human β1-Adrenoceptor Expressed Cells
The plasmid (320 ng) for expression which was obtained in the previous section was transfected into 5×10^4 CHO cells suspended in DMEM (Gibco-BRL: LIFE TECHNOLOGIES) containing 10% fetal bovine serum (Sanko Junyaku) by means of Lipofectoamine2000 (Invitrogen). These cells were dispensed in 96 well plate by 5×10^4 cells/100 μL per well and were cultured under an atmosphere of 5% CO2 at 37° C. for 24 hours, and were used for the assay.
(§2) 3. Measurement of Agonistic Activities on Human β1- and β2-Adrenoceptors
(§3) Test compounds were dissolved in 50% dimethyl sulfoxide to make a 10^−2 M solution. Then, a series of 1:10 dilutions containing a maximal dose of 2×10^−4 M were prepared using D-PBS (−) (Gibco-BRL: LIFE TECHNOLOGIES). The series were used for a testing sample to measure activity. The culture medium of CHO cells of previous section was removed and washed twice with 200 μL D-PBS (−) per well. After that, 50 μL of 3-isobutyl-1-methylxanthine (SIGMA, 1 mM) was added and leaved at rest for 5 minutes, and 50 μL of testing sample were added in them and they were incubated under an atomosphere of 5% CO2 at 37° C. for 30 minutes. cAMP concentrations accumulated in cells were reacted in cAMP-Screen (Applied Biosystems) and were detected by Microplate Luminometer TR717 (Applied Biosystems). The maximum reaction of isoproterenol, a positive contrast, was taken as a 100%, and the concentration of a test compound which gave reaction of the 50% was calculated as an EC50 value. In addition, the ratio of the maximum reaction of the test compound against the maximum reaction of isoproterenol was calculated as an intrinsic activity (I.A.).
(§4) (R)-3′-[[2-[[2-(3-chlorophenyl)-2-hydroxyethyl]aminoethoxy]-[1,1′-biphenyl]-3-carboxylic acid which was described in WO99/65877 was also examined as a comparison example.

In the next test the target is T2, human β2-adrenoceptor (Homo sapiens, UniProt P07550, E27Q/G16R).
T2 construct: expressed in transfected cells; host or cells: CHO cells (transient transfection, Lipofectamine 2000)
T2 sequence (P07550 whole entry G16R/E27Q): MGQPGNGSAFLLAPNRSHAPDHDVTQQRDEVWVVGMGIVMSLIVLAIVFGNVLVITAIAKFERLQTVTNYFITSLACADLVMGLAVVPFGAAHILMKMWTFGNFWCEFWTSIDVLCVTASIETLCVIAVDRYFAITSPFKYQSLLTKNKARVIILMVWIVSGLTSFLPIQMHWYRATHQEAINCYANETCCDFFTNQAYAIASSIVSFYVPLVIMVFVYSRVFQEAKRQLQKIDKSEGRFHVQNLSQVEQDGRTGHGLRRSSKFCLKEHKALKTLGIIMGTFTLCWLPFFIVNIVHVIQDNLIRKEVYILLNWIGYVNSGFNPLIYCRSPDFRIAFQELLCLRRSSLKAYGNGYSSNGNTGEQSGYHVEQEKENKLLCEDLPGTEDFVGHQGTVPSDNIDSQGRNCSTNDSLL
The experiment in a line: Measurement of agonistic activities on human β2-adrenoceptor (cAMP accumulation in transfected CHO cells). As to conditions: CHO cells expressing human β2-adrenoceptor; for Emax: maximum reaction relative to isoproterenol (100%), read-out: β2 receptor I.A. (intrinsic activity); for EC50: cAMP, concentration giving 50% of the maximum reaction of isoproterenol, read-out: β2 receptor EC50.
From the text: as §1
The primer which added a restriction enzyme recognition region to 5′ end was designed on the basis of the base information that is registered with GenBank/EMBL data base as Accession No. M15169, and the clone was obtained by performance of PCR using human bladder origin cDNA as a template. The clone was inserted into pGEM-T vector and was amplified in Escherichia coli bacteria as a plasmid, and it was purified and the sequence of full length and around of insertion sequence determined by means of 310 Genetic Analyzer (ABI).
2) Preparation of Human β2-Adreoceptor Expressed Cells
The plasmid (80 ng) for expression obtained in the previous section was transfected into 5×10^4 CHO cells suspended in DMEM (Gibco-BRL: LIFE TECHNOLOGIES) containing 10% fetal bovine serum (Sanko Junyaku) by means of Lipofectoamine2000 (Invitrogen). These cells were dispensed in 96 well plate by 5×10^4 cells/100 μL per well and were cultured under an atmosphere of 5% CO2 at 37° C. for 24 hours, and were used for the assay.
as §2, §3, §4
For orientation: Cyclic AMP is a second messenger, typically raised through Gs and lowered through Gi signalling.

A further test concerns the target T3, human β3-adrenoceptor (Homo sapiens, UniProt P13945).
T3 construct: SK—N-MC cells (American Type Culture Collection, 1×10^5cell/mL) were put in 96 well plates; host or cells: SK-N-MC cells
The experiment in a line: Measurement of agonistic activities on human β3-adrenoceptor (cAMP accumulation in SK-N-MC cells). As to conditions: for EC50: SK-N-MC cells with CGP-20712A, cAMP, concentration giving 50% of the maximum reaction of isoproterenol, read-out: β3 receptor EC50; for Emax: SK-N-MC cells, maximum reaction relative to maximum reaction of isoproterenol (100%), read-out: β3 receptor I.A. (intrinsic activity). How it is done: Measurement of Agonistic Activities on Human β3-Adrenoceptor
Test compounds were dissolved in 50% dimethyl sulfoxide to make a 10^−2 M solution. Then, a series of 1:10 dilutions containing a maximal dose of 1×10^−4 M were prepared using D-PBS (−) (Gibco-BRL: LIFE TECHNOLOGIES). The series were used for a testing sample to measure activity. SK—N-MC cells (American Type Culture Collection, 1×10^5cell/mL) were put in 96 well plates by 100 μL and were cultured for about 24 hours. Forty μL of D-PBS and 20 μL of CGP-20712A (FUNAKOSHI, 3×10^−6 mol/L D-PBS solution) were added in them and incubated for 20 minutes. After that, 20 μL of 3-isobutyl-1-methylxanthine (SIGMA, 1×10^−2 mol/L D-PBS solution) and 20 μL of testing sample were added in them and they were incubated under an atmosphere of 5% CO2 at 37° C. for 30 minutes. cAMP concentrations accumulated in cells were reacted in cAMP-Screen (Applied Biosystems) and were detected by Microplate Luminometer TR717 (Applied Biosystems). The maximum reaction of isoproterenol, a positive contrast, was taken as a 100%, and the concentration of a test compound which gave reaction of the 50% was calculated as an EC50 value. In addition, the ratio of the maximum reaction of the test compound against the maximum reaction of isoproterenol was calculated as an intrinsic activity (I.A.). (R)-3′-[[2-[[2-(3-chlorophenyl)-2-hydroxyethyl]aminoethoxy]-[1,1′-biphenyl]-3-carboxylic acid which was described in WO99/65877 was also examined as a comparison example.

The structures appear in SMILES notation.

T3 sequence (P13945 whole entry): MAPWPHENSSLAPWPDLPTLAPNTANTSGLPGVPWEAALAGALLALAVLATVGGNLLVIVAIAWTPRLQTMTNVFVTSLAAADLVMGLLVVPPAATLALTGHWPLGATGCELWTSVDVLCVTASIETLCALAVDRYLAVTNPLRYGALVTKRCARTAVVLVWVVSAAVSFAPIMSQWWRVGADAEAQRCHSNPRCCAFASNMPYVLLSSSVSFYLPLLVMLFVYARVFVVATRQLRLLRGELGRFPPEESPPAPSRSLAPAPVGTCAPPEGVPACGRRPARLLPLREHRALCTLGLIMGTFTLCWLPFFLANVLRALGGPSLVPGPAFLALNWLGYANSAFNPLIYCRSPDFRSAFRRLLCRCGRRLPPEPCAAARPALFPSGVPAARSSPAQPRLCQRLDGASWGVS
T1 sequence (P08588 whole entry): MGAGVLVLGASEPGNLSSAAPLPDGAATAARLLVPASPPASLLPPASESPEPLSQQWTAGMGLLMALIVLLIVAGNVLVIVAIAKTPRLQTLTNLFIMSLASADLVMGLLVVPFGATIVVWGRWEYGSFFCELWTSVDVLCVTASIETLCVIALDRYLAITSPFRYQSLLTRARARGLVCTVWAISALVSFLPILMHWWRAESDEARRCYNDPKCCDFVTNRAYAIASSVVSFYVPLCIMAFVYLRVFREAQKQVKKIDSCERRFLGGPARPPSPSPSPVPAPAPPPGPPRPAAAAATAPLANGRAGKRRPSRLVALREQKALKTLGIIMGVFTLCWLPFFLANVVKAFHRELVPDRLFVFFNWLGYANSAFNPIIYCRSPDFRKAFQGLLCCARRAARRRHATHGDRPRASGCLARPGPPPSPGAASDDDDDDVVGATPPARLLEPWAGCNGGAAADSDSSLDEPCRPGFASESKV

In general, EC50 refers to the concentration at which the effect is half-maximal. For the molecule `CCOc1cc(-c2ccc(OCCNC[C@H](O)c3ccc(O)c(NS(C)(=O)=O)c3)cc2)ccc1C(=O)O` [Compound 28, 3-Ethoxy-4′-{2-[(R)-2-hydroxy-2-(4-hydroxy-3-methanesulfonylaminophenyl)ethylamino]ethoxy}biphenyl-4-carboxylic acid], the results for the EC50 on human β1-adrenoceptor and at human β3-adrenoceptor were 1670 nM and 19.3 nM, respectively. The Emax came to 85% on human β1-adrenoceptor, 27% on human β2-adrenoceptor and 112% at human β3-adrenoceptor.
Take `O=C(O)c1cccc(-c2cccc(OCCNC[C@H](O)c3cccc(Cl)c3)c2)c1` [comparison, reference compound]: on human β1-adrenoceptor, the EC50 amounted to 742 nM. The Emax came out at 60% on human β1-adrenoceptor, 15% on human β2-adrenoceptor and 27% at human β3-adrenoceptor.
`Cc1cc(-c2ccc(OCC(=O)O)cc2)cc(C)c1OCCN[C@@H](C)[C@H](O)c1ccc(O)c(NS(C)(=O)=O)c1` [Compound 9, (4′-{2-[(1S,2R)-2-Hydroxy-2-(4-hydroxy-3-methanesulfonylaminophenyl)-1-methylethylamino]ethoxy}-3′,5′-dimethylbiphenyl-4-yloxy)acetic acid]: the Emax at human β1-adrenoceptor was determined as 49%; at human β2-adrenoceptor it was 60%; on human β3-adrenoceptor, 222%. The EC50 on human β2-adrenoceptor amounted to 200 nM; on human β3-adrenoceptor, 14.2 nM.
As for `CS(=O)(=O)Nc1cc([C@@H](O)CNCCOc2ccc(-c3ccc(C(=O)O)c(C(=O)O)c3)cc2)ccc1O` [Compound 21, 4′-{2-[(R)-2-Hydroxy-2-(4-hydroxy-3-methanesulfonylaminophenyl)ethylamino]ethoxy}biphenyl-3,4-dicarboxylic acid], the EC50 at human β1-adrenoceptor is 9330 nM; at human β2-adrenoceptor it was 4490 nM; on human β3-adrenoceptor it was 57.1 nM. Moreover, the Emax at human β1-adrenoceptor stood at 86%; at human β2-adrenoceptor it was 61%; on human β3-adrenoceptor, 154%.
